From patent US20160030407A1, “Method of Treating Inflammatory Lung Disease” (priority 2010, published 2016)
“And” between values parts separate entries of the source, which are not always exact repeats. Equal values may be shown once.

How the values were obtained:
[1] = Single i.v. dose toxicity: clinical chemistry; format: in vivo, Sprague-Dawley rats
From the text: On day 15, urine was collected on all surviving animals for urinalysis. The animals were euthanized and bled via cardiac puncture. Blood was collected for hematology, clinical chemistry, and coagulation analysis. Tissues were collected, weighed, and stored in 10% neutral-buffered formalin for possible future analysis.

[2] = target: T1, nAChR α4/β2 (Homo sapiens, UniProt P17787+P43681); assay: nAChR α4/β2 channel agonist assay (FLIPR); format: cell-based; conditions: 0.3-1000 μM
T1 construct: host or cells: HEK293 cells, transient
T1 sequence (P43681 29-627): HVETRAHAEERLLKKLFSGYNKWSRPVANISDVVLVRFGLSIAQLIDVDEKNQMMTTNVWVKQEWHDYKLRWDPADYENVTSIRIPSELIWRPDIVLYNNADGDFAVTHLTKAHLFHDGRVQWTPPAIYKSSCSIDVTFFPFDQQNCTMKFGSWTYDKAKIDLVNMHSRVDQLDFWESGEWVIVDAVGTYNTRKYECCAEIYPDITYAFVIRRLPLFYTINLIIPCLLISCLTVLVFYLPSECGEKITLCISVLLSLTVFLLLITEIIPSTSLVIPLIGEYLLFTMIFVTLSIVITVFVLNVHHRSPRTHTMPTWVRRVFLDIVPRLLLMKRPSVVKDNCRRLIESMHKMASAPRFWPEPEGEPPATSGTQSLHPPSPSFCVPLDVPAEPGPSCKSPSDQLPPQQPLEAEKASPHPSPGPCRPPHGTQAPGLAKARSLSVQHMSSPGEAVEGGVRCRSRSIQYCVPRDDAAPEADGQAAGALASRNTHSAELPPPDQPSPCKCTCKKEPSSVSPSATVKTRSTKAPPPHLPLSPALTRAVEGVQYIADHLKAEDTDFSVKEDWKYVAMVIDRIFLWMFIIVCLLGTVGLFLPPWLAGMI
T1 sequence (P17787 26-502): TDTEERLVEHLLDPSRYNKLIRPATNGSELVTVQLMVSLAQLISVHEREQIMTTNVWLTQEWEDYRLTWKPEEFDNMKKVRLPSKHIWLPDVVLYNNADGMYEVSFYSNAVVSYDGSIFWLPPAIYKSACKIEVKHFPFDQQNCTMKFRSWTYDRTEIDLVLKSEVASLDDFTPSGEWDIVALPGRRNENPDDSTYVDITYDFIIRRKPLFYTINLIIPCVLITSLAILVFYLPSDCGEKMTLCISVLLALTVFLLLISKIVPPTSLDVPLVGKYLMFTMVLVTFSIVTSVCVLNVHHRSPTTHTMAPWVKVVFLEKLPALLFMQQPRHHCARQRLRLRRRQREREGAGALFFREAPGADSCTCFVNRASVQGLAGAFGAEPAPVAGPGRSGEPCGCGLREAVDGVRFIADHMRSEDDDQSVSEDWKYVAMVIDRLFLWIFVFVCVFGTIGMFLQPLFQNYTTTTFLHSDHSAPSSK
Protocol: (§1) Briefly, cells were incubated with […] dye for 30 min at 37° C.

[3] = system: autoimmune thyroiditis; assay: Experimental Autoimmune Thyroiditis (Example 16A): thyroid histopathology; format: in vivo, mice; conditions: 0.05 mg/ml in drinking water (approx. 12.5 mg/kg/day); day 21; p=0.05
Protocol: Thyroiditis was induced by injection of thyroglobulin emulsified in complete Freund's adjuvant […]. On days 0 and 7, female mice received subcutaneous injection of 100 μg thyroglobulin (2 injections of 50 μg each). Control mice drank water. […] Mice were sacrificed on day 21.
Thyroid glands were removed. One lobe was fixed in formalin for histopathology. One lobe was frozen for immunohistochemistry. The extent of lymphocytic infiltration and destruction of the thyroid gland was assessed digitally. Initially, the entire thyroid lobe was examined. […] The final score was expressed as the percent of the thyroid area infiltrated by lymphocytes and damaged. The results are shown graphically in FIG. 42. […] Photomicrographs of hematoxylin- and eosin-stained thyroids from control and anatabine-treated mice are shown in FIG. 43A (control) and FIG. 43B (anatabine-treated).

[4] = target: nAChR α3/β4 (Homo sapiens, UniProt P30926+P32297); assay: nAChR α3/β4 channel agonist assay (FLIPR); format: cell-based; conditions: 0.3-1000 μM
nAChR α3/β4, sequence (P32297 32-505): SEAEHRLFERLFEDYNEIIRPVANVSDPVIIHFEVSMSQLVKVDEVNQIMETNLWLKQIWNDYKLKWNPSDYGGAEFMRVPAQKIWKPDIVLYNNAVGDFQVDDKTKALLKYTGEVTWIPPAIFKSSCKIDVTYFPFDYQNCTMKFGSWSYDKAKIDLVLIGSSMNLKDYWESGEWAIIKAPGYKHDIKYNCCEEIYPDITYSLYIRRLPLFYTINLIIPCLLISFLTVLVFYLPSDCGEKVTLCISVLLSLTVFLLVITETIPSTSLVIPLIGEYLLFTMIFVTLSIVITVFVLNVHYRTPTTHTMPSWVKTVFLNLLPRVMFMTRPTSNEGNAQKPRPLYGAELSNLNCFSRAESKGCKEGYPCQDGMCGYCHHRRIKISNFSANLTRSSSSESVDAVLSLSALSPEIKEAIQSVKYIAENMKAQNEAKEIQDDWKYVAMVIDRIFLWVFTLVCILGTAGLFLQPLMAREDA
nAChR α3/β4, sequence (P30926 22-498): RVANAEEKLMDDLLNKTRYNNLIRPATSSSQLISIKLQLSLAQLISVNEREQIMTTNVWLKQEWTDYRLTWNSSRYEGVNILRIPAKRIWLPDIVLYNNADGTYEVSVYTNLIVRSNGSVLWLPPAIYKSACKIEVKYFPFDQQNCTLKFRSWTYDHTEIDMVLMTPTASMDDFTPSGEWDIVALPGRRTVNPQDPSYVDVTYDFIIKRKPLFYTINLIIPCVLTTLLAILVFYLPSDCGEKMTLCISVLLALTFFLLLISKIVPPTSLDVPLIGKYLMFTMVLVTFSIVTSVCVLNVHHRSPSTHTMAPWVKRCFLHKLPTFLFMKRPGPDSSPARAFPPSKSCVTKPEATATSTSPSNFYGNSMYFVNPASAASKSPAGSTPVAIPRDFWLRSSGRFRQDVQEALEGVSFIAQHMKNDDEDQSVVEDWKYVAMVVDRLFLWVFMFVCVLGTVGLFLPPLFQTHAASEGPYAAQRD
Protocol: as §1

[5] = 0.1 mg/kg anatabine, nicotine 0.75 mg/kg
[6] = 0.1 mg/kg, gender F, group mean
[7] = 0.1 mg/kg, gender M, group mean
[8] = 0.75 mg/kg, gender F, group mean
[9] = 0.75 mg/kg, gender M, group mean
[10] = Anatabine 0.1 mg/kg single i.v. dose, female rats, individual animals B6-B10
[11] = Anatabine 0.1 mg/kg single i.v. dose, male rats, individual animals B1-B5
[12] = Anatabine 0.1 mg/kg, M, Mean, n 5
[13] = Anatabine 0.75 mg/kg single i.v. dose, female rats, individual animals C6-C10
[14] = Anatabine 0.75 mg/kg single i.v. dose, male rats, individual animals C1-C5
[15] = Anatabine 0.75 mg/kg, F, Mean, n 5

For `C1=CCC(c2cccnc2)NC1` (racemic) [Anatabine, 1,2,3,6-tetrahydro-[2,3′]bipyridinyl], the “globulins vs vehicle controls, females” value [1, 5] was “slightly higher”, the “total protein vs vehicle controls, females” value [1, 5] was “somewhat higher” and the AST [1, 6] was 77.00 IU/L. For the same compound, the “DIR BILIRUBIN” value [1, 6] was 0.00 mg/dL, the “TOT BILIRUBIN” value [1, 6] was 0.00 mg/dL and the AST [1, 7] was 96.00 IU/L. For the same compound, the BUN [1, 7] was 18.00 mg/dL, the “DIR BILIRUBIN” value [1, 7] was 0.00 mg/dL and the “TOT BILIRUBIN” value [1, 7] was 0.00 mg/dL. The “TOT PROTEIN” value [1, 7] was 6.10 g/dL, the “DIR BILIRUBIN” value [1, 8] was 0.00 mg/dL and the “TOT BILIRUBIN” value [1, 8] was 0.00 mg/dL. The “DIR BILIRUBIN” value [1, 9] was 0.02 mg/dL, the “TOT BILIRUBIN” value [1, 9] was 0.02 mg/dL and the ALBUMIN [1, 10] was 3.6 g/dL (3×) and 3.5 g/dL and 3.8 g/dL. The “ALK PHOSPHATASE” value [1, 10] was 140 IU/L and 220 IU/L, the ALT [1, 10] was 57 IU/L and 43 IU/L and 47 IU/L and 62 IU/L and 39 IU/L and the AST [1, 10] was 78 IU/L and 69 IU/L and 70 IU/L and 86 IU/L and 82 IU/L. The BUN [1, 10] was 21 mg/dL (2×) and 19 mg/dL (3×), the CHLORIDE [1, 10] was 99 mEq/L and 97 mEq/L and the CHOLESTEROL [1, 10] was 90 mg/dL and 74 mg/dL and 65 mg/dL and 66 mg/dL and 87 mg/dL. For the same compound, the CREATININE [1, 10] was 0.4 mg/dL (3×) and 0.5 mg/dL (2×), the “DIR BILIRUBIN” value [1, 10] was 0 mg/dL and the GLOBULIN [1, 10] was 3.1 g/dL (3×) and 3 g/dL. The GLUCOSE [1, 10] was 170 mg/dL and 220 mg/dL, the PHOSPHORUS [1, 10] was 8.5 mg/dL (2×) and 8.2 mg/dL and 7.4 mg/dL and 7.8 mg/dL and the POTASSIUM [1, 10] was 5.4 mEq/L and 6.3 mEq/L and 5.2 mEq/L and 5.5 mEq/L and 6.7 mEq/L. For the same compound, the “TOT BILIRUBIN” value [1, 10] was 0 mg/dL, the “TOT PROTEIN” value [1, 10] was 6.7 g/dL (2×) and 6.3 g/dL and 6.9 g/dL and 6.6 g/dL and the ALBUMIN [1, 11] was 3.4 g/dL (2×) and 3.2 g/dL and 3.1 g/dL (2×). The “ALK PHOSPHATASE” value [1, 11] was 470 IU/L, the ALT [1, 11] was 92 IU/L and 65 IU/L and 74 IU/L and 44 IU/L and 78 IU/L and the AST [1, 11] was 97 IU/L and 99 IU/L and 93 IU/L and 85 IU/L. For the same compound, the BUN [1, 11] was 18 mg/dL (2×) and 21 mg/dL and 14 mg/dL and 19 mg/dL, the CHLORIDE [1, 11] was 98 mEq/L and 97 mEq/L (2×) and 99 mEq/L (2×) and the CHOLESTEROL [1, 11] was 65 mg/dL and 64 mg/dL and 75 mg/dL and 56 mg/dL and 76 mg/dL. The CREATININE [1, 11] was 0.4 mg/dL (3×) and 0.3 mg/dL (2×), the “DIR BILIRUBIN” value [1, 11] was 0 mg/dL and the GLOBULIN [1, 11] was 2.9 g/dL (2×) and 2.6 g/dL and 3.1 g/dL. For the same compound, the GLUCOSE [1, 11] was 210 mg/dL, the POTASSIUM [1, 11] was 5.9 mEq/L and 6.5 mEq/L and 6.6 mEq/L and 6.9 mEq/L and 6.1 mEq/L and the “TOT BILIRUBIN” value [1, 11] was 0 mg/dL. For the same compound, the “TOT PROTEIN” value [1, 11] was 6.3 g/dL (2×) and 5.8 g/dL and 5.9 g/dL and 6.2 g/dL, the CREATININE ([1]; Anatabine 0.1 mg/kg, F, Mean, n 5) was 0.44 mg/dL and the CHLORIDE [1, 12] was 98.00 mEq/L. The CREATININE [1, 12] was 0.36 mg/dL, the POTASSIUM [1, 12] was 6.40 mEq/L and the ALBUMIN [1, 13] was 3.5 g/dL (2×) and 3.6 g/dL (2×) and 3.4 g/dL. The “ALK PHOSPHATASE” value [1, 13] was 130 IU/L and 160 IU/L, the ALT [1, 13] was 63 IU/L and 49 IU/L (2×) and 55 IU/L and 57 IU/L and the AST [1, 13] was 95 IU/L and 69 IU/L and 76 IU/L and 54 IU/L and 72 IU/L. For the same compound, the BUN [1, 13] was 15 mg/dL (3×) and 16 mg/dL (2×), the CHLORIDE [1, 13] was 97 mEq/L (2×) and 96 mEq/L and 99 mEq/L and the CHOLESTEROL [1, 13] was 66 mg/dL and 64 mg/dL and 63 mg/dL and 69 mg/dL and 87 mg/dL. For the same compound, the CREATININE [1, 13] was 0.5 mg/dL (2×) and 0.4 mg/dL (3×), the “DIR BILIRUBIN” value [1, 13] was 0 mg/dL and the GLOBULIN [1, 13] was 2.7 g/dL and 3 g/dL (2×). The PHOSPHORUS [1, 13] was 9.7 mg/dL and 7.7 mg/dL and 9.6 mg/dL and 9.2 mg/dL and 7 mg/dL, the POTASSIUM [1, 13] was 5.5 mEq/L and 5.9 mEq/L and 6 mEq/L and 5.7 mEq/L and 6.3 mEq/L and the “TOT BILIRUBIN” value [1, 13] was 0 mg/dL. For the same compound, the “TOT PROTEIN” value [1, 13] was 6.3 g/dL (2×) and 6.2 g/dL and 6.6 g/dL and 6.5 g/dL, the ALBUMIN [1, 14] was 3.4 g/dL (2×) and 3.1 g/dL and 3.2 g/dL and 3.3 g/dL and the ALT [1, 14] was 75 IU/L and 57 IU/L and 65 IU/L and 50 IU/L and 87 IU/L. For the same compound, the AST [1, 14] was 66 IU/L and 97 IU/L and 90 IU/L and 92 IU/L, the BUN [1, 14] was 15 mg/dL and 18 mg/dL and 12 mg/dL and 17 mg/dL and 21 mg/dL and the CHLORIDE [1, 14] was 98 mEq/L and 99 mEq/L (2×) and 100 mEq/L and 97 mEq/L. For the same compound, the CHOLESTEROL [1, 14] was 69 mg/dL (2×) and 60 mg/dL and 54 mg/dL and 62 mg/dL, the CREATININE [1, 14] was 0.4 mg/dL (3×) and 0.3 mg/dL (2×) and the “DIR BILIRUBIN” value [1, 14] was 0 mg/dL (4×) and 0.1 mg/dL. The GLOBULIN [1, 14] was 2.6 g/dL and 2.7 g/dL and 2.9 g/dL, the GLUCOSE [1, 14] was 160 mg/dL and the PHOSPHORUS [1, 14] was 11 mg/dL and 10 mg/dL. The POTASSIUM [1, 14] was 6.3 mEq/L (2×) and 5.4 mEq/L and 6 mEq/L and 6.6 mEq/L, the SODIUM [1, 14] was 150 mEq/L and the “TOT BILIRUBIN” value [1, 14] was 0 mg/dL (4×) and 0.1 mg/dL. The “TOT PROTEIN” value [1, 14] was 6.2 g/dL and 5.7 g/dL and 5.9 g/dL and 6.1 g/dL and 6.3 g/dL, the CHLORIDE [1, 15] was 98.00 mEq/L and the CREATININE [1, 15] was 0.44 mg/dL. For the same compound, the CREATININE ([1]; Anatabine 0.75 mg/kg, M, Mean, n 5) was 0.36 mg/dL, the “globulins vs vehicle controls, males” value ([1]; all anatabine dose levels, nicotine 0.75 mg/kg) was “marginally higher” and the “total protein vs vehicle controls, males” value ([1]; all anatabine treatment groups, nicotine 0.75 mg/kg) was “slightly increased”. For the same compound, the “albumin levels vs control” value ([1]; males 0.75 and […], females 0.1 and 0.75 mg/kg anatabine) was “slight increases in albumin levels”, the agonist activity [2] was “full agonist activity” and the “severity of thyroiditis (percent of thyroid area infiltrated and damaged)” value [3] was “less severe thyroiditis than control mice”. The agonist activity [4] was “showed agonist activity”.
